Assay results taken from the supplement of paper PMC10307832.

Assays:
Experiment in all cases: relative viability (nuclei count vs DMSO), 5 days (fraction); higher = more cells survive
[1] = compound: C/C(=N\NC(=S)N1CCC1)/C2=CC=CC=N2
Method in brief: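 On vehicle-anchored 1536-well plates, lung cancer cell lines held overnight at 37 °C were pinned with five library-drug doses (not always all listed) spaced by √10. With no medium change over 5 days, they were then fixed, permeabilised and Hoechst-stained in one step and imaged at 4×. MetaXpress counted nuclei, and viability is the median across plates of treated-well over vehicle-well nuclei. Acceptance needed control CV below 25% and at least one doubling.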

[2] = compound: C/C(=N\NC(=S)N1CCC1)/C2=CC=CC=N2 + CCNC(=O)c1noc(-c2cc(C(C)C)c(O)cc2O)c1-c1ccc(CN2CCOCC2)cc1 [Luminespib] (partner 0.01 µM)
Method in brief: (§1)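 A single step with final 0.05% Triton X-100, 1% formaldehyde and 1 ug/ml Hoechst fixed the cells and stained nuclei 5 days after treatment. Lung cancer cell lines in 1536-well plates had been treated by pin tool the day after seeding with one drug alone or a fixed anchor-drug dose plus five library-drug doses (not always all listed) in √10 steps, and nuclei were counted on 4× images. Relative viability is the ratio of nuclei in treated wells to nuclei in vehicle wells, taken as the median of duplicate plates.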

[3] = compound: C/C(=N\NC(=S)N1CCC1)/C2=CC=CC=N2 + COc1cc2c(Oc3ccc(NC(=O)C4(C(=O)Nc5ccc(F)cc5)CC4)cc3F)ccnc2cc1OCCCN1CCOCC1 [Foretinib] (partner 0.25 µM)
Method in brief: as §1

[4] = compound: C/C(=N\NC(=S)N1CCC1)/C2=CC=CC=N2 + COc1cccc2cc(-c3nc([C@H]4CC[C@H](C(=O)O)CC4)n4ncnc(N)c34)[nH]c12 [OSI-027] (partner 0.5 µM)
Method in brief: as §1

[5] = compound: C/C(=N\NC(=S)N1CCC1)/C2=CC=CC=N2 + Cc1cc(Nc2cc(N3CCN(C)CC3)nc(Sc3ccc(NC(=O)C4CC4)cc3)n2)n[nH]1 [Tozasertib] (partner 0.1 µM)
Method in brief: as §1

[6] = compound: C/C(=N\NC(=S)N1CCC1)/C2=CC=CC=N2 + Cc1nc(Nc2ncc(C(=O)Nc3c(C)cccc3Cl)s2)cc(N2CCN(CCO)CC2)n1 [Dasatinib] (partner 0.075 µM)
Method in brief: as §1

[7] = compound: C/C(=N\NC(=S)N1CCC1)/C2=CC=CC=N2 + N=C(N)NC(=N)NCCc1ccccc1 [Phenformin] (partner 250 µM)
Method in brief: as §1

[8] = compound: C/C(=N\NC(=S)N1CCC1)/C2=CC=CC=N2 + CC(=O)Nc1cccc(-n2c(=O)n(C3CC3)c(=O)c3c(Nc4ccc(I)cc4F)n(C)c(=O)c(C)c32)c1 [Trametinib] (partner 0.02 µM)
Method in brief: as §1

[9] = compound: C/C(=N\NC(=S)N1CCC1)/C2=CC=CC=N2 + CC(=O)c1c(C)c2cnc(Nc3ccc(N4CCNCC4)cn3)nc2n(C2CCCC2)c1=O [Palbociclib] (partner 0.5 µM)
Method in brief: as §1

[10] = compound: C/C(=N\NC(=S)N1CCC1)/C2=CC=CC=N2 + NC(=O)Nc1cc(-c2cccc(F)c2)sc1C(=O)N[C@H]1CCCNC1 [AZD7762] (partner 0.2 µM)
Method in brief: as §1

[11] = compound: C/C(=N\NC(=S)N1CCC1)/C2=CC=CC=N2 + Nc1nc2[nH]cc(CCc3ccc(C(=O)N[C@@H](CCC(=O)O)C(=O)O)cc3)c2c(=O)[nH]1 [Pemetrexed] (partner 0.2 µM)
Method in brief: as §1

[12] = compound: C/C(=N\NC(=S)N1CCC1)/C2=CC=CC=N2 + Nc1ncn([C@H]2C[C@H](O)[C@@H](CO)O2)c(=O)n1 [Decitabine] (partner 2 µM)
Method in brief: as §1

[13] = compound: C/C(=N\NC(=S)N1CCC1)/C2=CC=CC=N2 + O=C(CCCCCCC(=O)Nc1ccccc1)NO [Vorinostat] (partner 1 µM)
Method in brief: as §1

[14] = compound: C/C(=N\NC(=S)N1CCC1)/C2=CC=CC=N2 + O=C(c1cc(Cc2n[nH]c(=O)c3ccccc23)ccc1F)N1CCN(C(=O)C2CC2)CC1 [Olaparib] (partner 8 µM)
Method in brief: as §1

NCI-H1623 showed a relative viability ([1]; 0.05 µM) of 0.395, a relative viability ([1]; 0.1581 µM) of 0.415 and a relative viability ([1]; 0.5 µM) of 0.403. The relative viability ([1]; 1.581 µM) was 0.357, the relative viability ([1]; 5 µM) was 0.32 and the relative viability ([2]; first compound 0.05 µM) was 0.241. The relative viability ([2]; first compound 0.1581 µM) was 0.295, the relative viability ([2]; first compound 0.5 µM) was 0.303 and the relative viability ([2]; first compound 1.581 µM) was 0.231. It also gave a relative viability ([2]; first compound 5 µM) of 0.322, a relative viability ([3]; first compound 0.05 µM) of 0.39 and a relative viability ([3]; first compound 0.1581 µM) of 0.372. For the same cell line, the relative viability ([3]; first compound 0.5 µM) was 0.414, the relative viability ([3]; first compound 1.581 µM) was 0.347 and the relative viability ([3]; first compound 5 µM) was 0.622. For the same cell line, the relative viability ([4]; first compound 0.05 µM) was 0.336, the relative viability ([4]; first compound 0.1581 µM) was 0.367 and the relative viability ([4]; first compound 0.5 µM) was 0.332. It also gave a relative viability ([4]; first compound 1.581 µM) of 0.268, a relative viability ([4]; first compound 5 µM) of 0.293 and a relative viability ([5]; first compound 0.05 µM) of 0.32. It also gave a relative viability ([5]; first compound 0.1581 µM) of 0.329, a relative viability ([5]; first compound 0.5 µM) of 0.323 and a relative viability ([5]; first compound 1.581 µM) of 0.269. It also gave a relative viability ([5]; first compound 5 µM) of 0.266, a relative viability ([6]; first compound 0.05 µM) of 0.32 and a relative viability ([6]; first compound 0.1581 µM) of 0.364. The relative viability ([6]; first compound 0.5 µM) was 0.293, the relative viability ([6]; first compound 1.581 µM) was 0.276 and the relative viability ([6]; first compound 5 µM) was 0.528. The relative viability ([7]; first compound 0.05 µM) was 0.366, the relative viability ([7]; first compound 0.1581 µM) was 0.337 and the relative viability ([7]; first compound 0.5 µM) was 0.424. The relative viability ([7]; first compound 1.581 µM) was 0.349 and the relative viability ([7]; first compound 5 µM) was 0.636.

SW 900 was tested, and the relative viability ([1]; 0.05 µM) was 0.147, the relative viability ([1]; 0.1581 µM) was 0.135 and the relative viability ([1]; 0.5 µM) was 0.0841. The relative viability ([1]; 1.581 µM) was 0.127, the relative viability ([1]; 5 µM) was 0.188 and the relative viability ([8]; first compound 0.05 µM) was 0.125. It also gave a relative viability ([8]; first compound 0.1581 µM) of 0.165, a relative viability ([8]; first compound 0.5 µM) of 0.137 and a relative viability ([8]; first compound 1.581 µM) of 0.142. It also gave a relative viability ([8]; first compound 5 µM) of 0.168, a relative viability ([9]; first compound 0.05 µM) of 0.171 and a relative viability ([9]; first compound 0.1581 µM) of 0.136. The relative viability ([9]; first compound 0.5 µM) was 0.134, the relative viability ([9]; first compound 1.581 µM) was 0.175 and the relative viability ([9]; first compound 5 µM) was 0.197. It also gave a relative viability ([2]; first compound 0.05 µM) of 0.162, a relative viability ([2]; first compound 0.1581 µM) of 0.144 and a relative viability ([2]; first compound 0.5 µM) of 0.106. It also gave a relative viability ([2]; first compound 1.581 µM) of 0.124, a relative viability ([2]; first compound 5 µM) of 0.184 and a relative viability ([3]; first compound 0.05 µM) of 0.117. For the same cell line, the relative viability ([3]; first compound 0.1581 µM) was 0.114, the relative viability ([3]; first compound 0.5 µM) was 0.0636 and the relative viability ([3]; first compound 1.581 µM) was 0.068. For the same cell line, the relative viability ([3]; first compound 5 µM) was 0.15, the relative viability ([4]; first compound 0.05 µM) was 0.0629 and the relative viability ([4]; first compound 0.1581 µM) was 0.1. It also gave a relative viability ([4]; first compound 0.5 µM) of 0.0605, a relative viability ([4]; first compound 1.581 µM) of 0.0573 and a relative viability ([4]; first compound 5 µM) of 0.119. The relative viability ([5]; first compound 0.05 µM) was 0.155, the relative viability ([5]; first compound 0.1581 µM) was 0.107 and the relative viability ([5]; first compound 0.5 µM) was 0.0961. It also gave a relative viability ([5]; first compound 1.581 µM) of 0.14, a relative viability ([5]; first compound 5 µM) of 0.178 and a relative viability ([6]; first compound 0.05 µM) of 0.129. The relative viability ([6]; first compound 0.1581 µM) was 0.134, the relative viability ([6]; first compound 0.5 µM) was 0.112 and the relative viability ([6]; first compound 1.581 µM) was 0.0964. The relative viability ([6]; first compound 5 µM) was 0.248, the relative viability ([7]; first compound 0.05 µM) was 0.0993 and the relative viability ([7]; first compound 0.1581 µM) was 0.114. For the same cell line, the relative viability ([7]; first compound 0.5 µM) was 0.105, the relative viability ([7]; first compound 1.581 µM) was 0.0942 and the relative viability ([7]; first compound 5 µM) was 0.147. For the same cell line, the relative viability ([10]; first compound 0.05 µM) was 0.188, the relative viability ([10]; first compound 0.1581 µM) was 0.122 and the relative viability ([10]; first compound 0.5 µM) was 0.0988. The relative viability ([10]; first compound 1.581 µM) was 0.188, the relative viability ([10]; first compound 5 µM) was 0.171 and the relative viability ([11]; first compound 0.05 µM) was 0.127. The relative viability ([11]; first compound 0.1581 µM) was 0.081, the relative viability ([11]; first compound 0.5 µM) was 0.0901 and the relative viability ([11]; first compound 1.581 µM) was 0.122. It also gave a relative viability ([11]; first compound 5 µM) of 0.196, a relative viability ([12]; first compound 0.05 µM) of 0.21 and a relative viability ([12]; first compound 0.1581 µM) of 0.231. It also gave a relative viability ([12]; first compound 0.5 µM) of 0.16, a relative viability ([12]; first compound 1.581 µM) of 0.201 and a relative viability ([12]; first compound 5 µM) of 0.17. For the same cell line, the relative viability ([13]; first compound 0.05 µM) was 0.145, the relative viability ([13]; first compound 0.1581 µM) was 0.149 and the relative viability ([13]; first compound 0.5 µM) was 0.0776. The relative viability ([13]; first compound 1.581 µM) was 0.125, the relative viability ([13]; first compound 5 µM) was 0.183 and the relative viability ([14]; first compound 0.05 µM) was 0.233. It also gave a relative viability ([14]; first compound 0.1581 µM) of 0.116, a relative viability ([14]; first compound 0.5 µM) of 0.135 and a relative viability ([14]; first compound 1.581 µM) of 0.164. It also gave a relative viability ([14]; first compound 5 µM) of 0.16.
